Experimental findings from patent publication US20250064945A1 (Arvinas Operations, Inc., priority 2021, published 2025) are described below.

SMILES strings stand for the structures. Bounds are passed on as bounds.

The target in this test is T1, BRM (Homo sapiens, UniProt P51531).
T1 construct: In-Cell Western Screen of BRM Degradation in SW1573 Cells; endogenous in cells; host or cells: SW1573 cells
As to the kind of experiment: Western blot / In-Cell Western screen of BRM degradation in SW1573 cells. Format: cell-based. To be noted: overnight (18-20 hours) treatment; for Dmax: read-out: Dmax (%) (% degraded). As for the experimental part:
Western Blot Screen of BRM Degradation in SW1573 Cells
To assess BRM degradation (Dmax and DC50) cells were seeded at 8000/well in 96-well black/clear-bottom plates in 180 μL DMEM growth media (containing 1% pen-strep, 1% HEPES and 10% FBS) per well. Plates were incubated overnight to allow adhesion. The next morning cells were treated by adding 20 μL of 10× target compound concentration (1% DMSO) to appropriate wells and returned to incubator for overnight (18-20 hours). The final DMSO concentration was 0.1%.
For lysing, adherent cells were washed once with 100 μL of DPBS. Cells were lysed in 40 μL of 1× RIPA+HALT protease inhibitor on ice for 10 minutes and frozen until use at −80° C. Thawed lysates were cleaned by filtration in 1.2 µm filter plates, or alternatively, were spun clean at 2300 g at 4° C. for 30 minutes.
For blotting, for each Western sample 30 μL of lysate was added to 10 μL of 4×LDS sample buffer, then denatured at 95° C. for 5 minutes in the thermal cycler and placed on ice. Samples were loaded on 4-15% Tris/Glycine gels and run for 25 minutes at 250 constant volts in 1×Tris/Glycine buffer with 4 μL of ladder and 12 μL of each sample loaded for each blot. Protein was transferred from gels to NC with BioRad Turbo dry-transfer unit with the Turbo/midi default program. All blots were rinsed with ddH2O and blocked for 1 hour at room temperature in 5% BSA in TBST (0.1%) on rocker. Blots were exposed to primary antibody in 5% BSA in TBST (0.1%) overnight at 4° C. on rocker (1:1000 for BRM (Cell Signaling Tech. cat #11966) and 1:2000 for alpha-tubulin (Cell Signaling Tech. cat #3873), a control protein. Blot was washed with TBST (0.1%) three times for 5 minutes on rocker at room temperature. Secondary antibody was added, and blots were incubated on a room temperature rocker for 1 hour with 1:18,000 anti-rabbit-HRP and/or anti-mouse-HRP in 5% BSA in TBST (0.1%). Blots were washed three times in TBST (0.1%) for 5 minutes at room temperature on the rocker. Signal was developed with Femto Maximum Sensitivity substrate for 4 minutes and blots read on ChemiDoc™.
In-Cell Western Screen of BRM Degradation in SW1573 Cells
To assess BRM degradation (Dmax and DC50), cells were seeded at 8000/well in 96-well black/clear-bottom plates in 180 μL DMEM growth media (containing 1% pen-strep, 1% HEPES and 10% FBS) per well. Plates were incubated overnight to allow adhesion. The next morning cells were treated by adding 20 μL of 10× compound (1% DMSO) to appropriate wells and returned to incubator for overnight (18-20 hours). The final DMSO concentration was 0.1%.
For processing, the plates were removed from incubator, the media was removed, and immediately 200 μL of cold (4° C.) DPBS was added to all wells. DPBS was then removed, and 50 μL of 4% paraformaldehyde (PFA) in DPBS (4° C.) was added to all wells, and the plates were incubated at room temperature for 20 minutes. PFA was then removed, and 200 μL of TBS-T containing 0.5% Triton X-100 was added to all wells, and the plates were incubated at room temperature for 30 minutes. TBS-T containing 0.5% Triton X-100 was then removed, and 50 μL of Li-Cor blocking solution was added, and the plates were incubated at room temperature for a minimum of one hour. The blocking solution was removed, and 50 μL of Li-Cor blocking solution containing primary antibody cocktail was added (1:1000 for BRM (Cell Signaling Tech. cat #11966) and 1:2000 for alpha-tubulin (Sigma cat #T6074), a control protein. Plates were then placed in cold room until the next day.
The next day plates were washed three times with TBS-T, 200 μL per well. Fifty […] of secondary antibody cocktail in LI-COR blocking solution (anti-rabbit_800 nm and anti-mouse_680 nm) was added to all wells (diluted 1:5000). The plates were incubated at room temperature for at least one hour while protected from light. The plates were washed twice with TBS-T, 200 μL per well. […]

T1 sequence (P51531 whole entry): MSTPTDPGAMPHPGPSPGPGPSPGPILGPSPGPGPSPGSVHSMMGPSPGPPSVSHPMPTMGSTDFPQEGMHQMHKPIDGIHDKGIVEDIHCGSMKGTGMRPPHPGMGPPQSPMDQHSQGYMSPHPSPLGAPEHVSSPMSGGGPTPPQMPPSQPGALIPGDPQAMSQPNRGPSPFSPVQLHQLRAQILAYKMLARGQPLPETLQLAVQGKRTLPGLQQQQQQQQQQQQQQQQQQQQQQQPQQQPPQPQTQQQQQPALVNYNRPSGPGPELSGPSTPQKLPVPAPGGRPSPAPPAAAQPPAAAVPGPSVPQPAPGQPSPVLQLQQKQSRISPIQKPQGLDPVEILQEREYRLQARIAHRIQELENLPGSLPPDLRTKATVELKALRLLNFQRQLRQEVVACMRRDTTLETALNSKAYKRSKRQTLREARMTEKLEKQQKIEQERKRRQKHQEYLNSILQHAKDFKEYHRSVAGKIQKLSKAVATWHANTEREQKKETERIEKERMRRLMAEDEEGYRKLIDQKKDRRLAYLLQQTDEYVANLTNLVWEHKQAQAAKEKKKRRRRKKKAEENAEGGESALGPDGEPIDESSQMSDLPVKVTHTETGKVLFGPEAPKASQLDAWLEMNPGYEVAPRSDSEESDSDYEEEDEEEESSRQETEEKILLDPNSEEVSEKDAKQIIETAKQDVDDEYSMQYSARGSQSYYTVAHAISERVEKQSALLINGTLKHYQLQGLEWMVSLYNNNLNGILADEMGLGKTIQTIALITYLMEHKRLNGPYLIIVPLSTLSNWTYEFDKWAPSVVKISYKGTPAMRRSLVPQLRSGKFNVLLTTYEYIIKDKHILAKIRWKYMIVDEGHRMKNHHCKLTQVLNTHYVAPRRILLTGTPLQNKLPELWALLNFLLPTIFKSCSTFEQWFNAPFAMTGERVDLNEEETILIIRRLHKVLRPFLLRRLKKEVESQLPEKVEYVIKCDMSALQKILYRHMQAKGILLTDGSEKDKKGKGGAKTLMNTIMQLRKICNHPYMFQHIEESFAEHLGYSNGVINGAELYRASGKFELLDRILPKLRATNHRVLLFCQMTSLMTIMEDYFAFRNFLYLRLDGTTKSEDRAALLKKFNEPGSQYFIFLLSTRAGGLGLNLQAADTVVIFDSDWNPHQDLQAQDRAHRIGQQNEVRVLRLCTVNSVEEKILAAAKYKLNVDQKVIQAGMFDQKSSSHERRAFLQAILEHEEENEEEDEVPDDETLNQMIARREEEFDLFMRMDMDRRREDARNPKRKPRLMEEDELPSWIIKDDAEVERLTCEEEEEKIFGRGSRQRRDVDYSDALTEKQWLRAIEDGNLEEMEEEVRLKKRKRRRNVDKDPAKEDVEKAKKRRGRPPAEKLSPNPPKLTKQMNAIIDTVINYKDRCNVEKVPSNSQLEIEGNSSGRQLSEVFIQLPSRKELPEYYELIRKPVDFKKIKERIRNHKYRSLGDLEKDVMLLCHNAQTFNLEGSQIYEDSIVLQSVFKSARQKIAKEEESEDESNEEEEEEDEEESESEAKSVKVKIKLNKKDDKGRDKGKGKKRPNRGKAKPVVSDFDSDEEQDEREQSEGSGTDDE

On to `Cc1cnn(C)c1-c1ccc([C@H](C)NC(=O)[C@@H]2C[C@@H](O)CN2C(=O)[C@@H](c2cc(N3CCC(CN4CCC(O[C@H]5C[C@H](C#Cc6cn7cc(-c8ccccc8O)nc7nc6N)C5)CC4)CC3)no2)C(C)C)cc1` [Compound 40, (2S,4R)-N-[(1S)-1-[4-(1,4-dimethyl-1H-pyrazol-5-yl)phenyl]ethyl]-4-hydroxy-1-[(2R)-3-methyl-2-{3-[4-({4-[(1r,3r)-3-{2-[7-amino-2-(2-hydroxyphenyl)imidazo[1,2-a]pyrimidin-6-yl]ethynyl}cyclobutoxy]piperidin-1-yl}methyl)piperidin-1-yl]-1,2-oxazol-5-yl}butanoyl]pyrrolidine-2-carboxamide], for which the DC50 is 2.5 to 10 nM and the Dmax was over 75%.

`Cc1ncsc1-c1ccc([C@H](C)NC(=O)[C@@H]2C[C@@H](O)CN2C(=O)[C@@H](c2cc(N3CCC(CN4CCC(O[C@H]5C[C@H](Oc6cc(N7CCN(c8cc(-c9ccccc9O)nnc8N)CC78COC8)ccn6)C5)CC4)CC3)no2)C(C)C)cc1` [Compound 4, (2S,4R)-4-hydroxy-N-[(1S)-1-[4-(4-methyl-1,3-thiazol-5-yl)phenyl]ethyl]-1-[(2R)-3-methyl-2-{3-[4-({4-[(1r,3r)-3-[(4-{8-[3-amino-6-(2-hydroxyphenyl)pyridazin-4-yl]-2-oxa-5,8-diazaspiro[3.5]nonan-5-yl}pyridin-2-yl)oxy]cyclobutoxy]piperidin-1-yl}methyl)piperidin-1-yl]-1,2-oxazol-5-yl}butanoyl]pyrrolidine-2-carboxamide]: the DC50 is under 2.5 nM and the Dmax was over 75%.

For `CC(C)[C@@H](C(=O)N1C[C@H](O)C[C@H]1C(=O)N[C@@H](C)c1ccc(-c2ccnn2C)cc1)c1cc(N2CCC(CN3CCC(O[C@H]4C[C@H](C#Cc5cn6cc(-c7ccccc7O)nc6nc5N)C4)CC3)CC2)no1` [Compound 33], the DC50 was under 2.5 nM and the Dmax is over 75%.

With `Cc1ncsc1-c1ccc([C@H](C)NC(=O)[C@@H]2C[C@@H](O)CN2C(=O)[C@@H](c2cc(N3CCC(CN4CCC5(CC4)CC(N4CCO[C@@H](CN6CCOC7(CCCN(c8cc(-c9ccccc9O)nnc8N)C7)C6)C4)C5)CC3)no2)C(C)C)cc1` (stereo partly drawn) [Compound 22, (2S,4R)-1-[(2R)-2-{3-[4-({2-[(2S)-2-({8-[3-amino-6-(2-hydroxyphenyl)pyridazin-4-yl]-1-oxa-4,8-diazaspiro[5.5]undecan-4-yl}methyl)morpholin-4-yl]-7-azaspiro[3.5]nonan-7-yl}methyl)piperidin-1-yl]-1,2-oxazol-5-yl}-3-methylbutanoyl]-4-hydroxy-N-[(1S)-1-[4-(4-methyl-1,3-thiazol-5-yl)phenyl]ethyl]pyrrolidine-2-carboxamide], the DC50 is under 2.5 nM and the Dmax is over 75%.

Consider `Cc1ncsc1-c1ccc([C@H](C)NC(=O)[C@@H]2C[C@@H](O)CN2C(=O)[C@@H](c2cc(N3CCC(CN4CCC(O[C@H]5C[C@H](OCC#Cc6cn7cc(-c8ccccc8O)nc7nc6N)C5)CC4)CC3)no2)C(C)C)cc1` [Compound 29], for which the DC50 was under 2.5 nM and the Dmax is over 75%.

Consider `Cc1ncsc1-c1ccc([C@H](C)NC(=O)[C@@H]2C[C@@H](O)CN2C(=O)[C@@H](c2cc(N3CCC(CN4CCC(O[C@H]5C[C@H](N6CCC(CC#Cc7cn8cc(-c9ccccc9O)nc8nc7N)CC6)C5)CC4)CC3)no2)C(C)C)cc1` [Compound 37, (2S,4R)-4-hydroxy-N-[(1S)-1-[4-(4-methyl-1,3-thiazol-5-yl)phenyl]ethyl]-1-[(2R)-3-methyl-2-{3-[4-({4-[(1r,3r)-3-(4-{3-[7-amino-2-(2-hydroxyphenyl)imidazo[1,2-a]pyrimidin-6-yl]prop-2-yn-1-yl}piperidin-1-yl)cyclobutoxy]piperidin-1-yl}methyl)piperidin-1-yl]-1,2-oxazol-5-yl}butanoyl]pyrrolidine-2-carboxamide], for which the DC50 is under 2.5 nM and the Dmax is over 75%.

Consider `Cc1ncsc1-c1ccc([C@H](C)NC(=O)[C@@H]2C[C@@H](O)CN2C(=O)[C@@H](c2cc(OCCN3CCN(CCOc4cc(N5CCN(c6cc(-c7ccccc7O)nnc6N)CC56COC6)ccn4)CC3)no2)C(C)C)cc1` [Compound 15, (2S,4R)-1-[(2R)-2-{3-[2-(4-{2-[(4-{8-[3-amino-6-(2-hydroxyphenyl)pyridazin-4-yl]-2-oxa-5,8-diazaspiro[3.5]nonan-5-yl}pyridin-2-yl)oxy]ethyl}piperazin-1-yl)ethoxy]-1,2-oxazol-5-yl}-3-methylbutanoyl]-4-hydroxy-N-[(1S)-1-[4-(4-methyl-1,3-thiazol-5-yl)phenyl]ethyl]pyrrolidine-2-carboxamide], for which the DC50 was under 2.5 nM and the Dmax is over 75%.

Consider `Cc1nccn1-c1ccc([C@H](C)NC(=O)[C@@H]2C[C@@H](O)CN2C(=O)[C@H](c2cc(OCCN3CCN(CCOc4cc(N5CCN(c6cc(-c7ccccc7O)nnc6N)CC56COC6)ccn4)CC3)no2)C(C)C)cc1` [Compound 21, (2S,4R)-1-[(2S)-2-{3-[2-(4-{2-[(4-{8-[3-amino-6-(2-hydroxyphenyl)pyridazin-4-yl]-2-oxa-5,8-diazaspiro[3.5]nonan-5-yl}pyridin-2-yl)oxy]ethyl}piperazin-1-yl)ethoxy]-1,2-oxazol-5-yl}-3-methylbutanoyl]-4-hydroxy-N-[(1S)-1-[4-(2-methyl-1H-imidazol-1-yl)phenyl]ethyl]pyrrolidine-2-carboxamide], for which the half-maximal degradation concentration (DC50) is at least 30 nM.

In the case of `Cc1ncsc1-c1ccc([C@H](C)NC(=O)[C@@H]2C[C@@H](O)CN2C(=O)[C@@H](c2cc(N3CCC(CN4CCC(O[C@H]5C[C@H](N6CCC(O[C@H]7C[C@H](C#Cc8cc(-c9ccccc9O)nnc8N)C7)CC6)C5)CC4)CC3)no2)C(C)C)cc1` [Compound 5, (2S,4R)-4-hydroxy-N-[(1S)-1-[4-(4-methyl-1,3-thiazol-5-yl)phenyl]ethyl]-1-[(2R)-3-methyl-2-{3-[4-({4-[(1r,3r)-3-(4-[(1r,3r)-3-{2-[3-amino-6-(2-hydroxyphenyl)pyridazin-4-yl]ethynyl}cyclobutoxy]piperidin-1-yl}cyclobutoxy]piperidin-1-yl}methyl)piperidin-1-yl]-1,2-oxazol-5-yl}butanoyl]pyrrolidine-2-carboxamide], the DC50 was under 2.5 nM and the maximal degradation (Dmax) is over 75%.

For `Cc1ncsc1-c1ccc([C@H](C)NC(=O)[C@@H]2C[C@@H](O)CN2C(=O)[C@@H](c2cc(N3CCC(CN4CCC(O[C@H]5C[C@H](Cn6cnc(-c7cn8cc(-c9ccccc9O)nc8nc7N)c6)C5)CC4)CC3)no2)C(C)C)cc1` [Compound 43, (2S,4R)-4-hydroxy-N-[(1S)-1-[4-(4-methyl-1,3-thiazol-5-yl)phenyl]ethyl]-1-[(2R)-3-methyl-2-{3-[4-({4-[(1r,3r)-3-({4-[7-amino-2-(2-hydroxyphenyl)imidazo[1,2-a]pyrimidin-6-yl]-1H-imidazol-1-yl}methyl)cyclobutoxy]piperidin-1-yl}methyl)piperidin-1-yl]-1,2-oxazol-5-yl}butanoyl]pyrrolidine-2-carboxamide], the DC50 was in the range of 2.5 to 10 nM and the greatest degradation seen (Dmax) was over 75%.
